Measurements reported in patent US20060156431A1, “L-gulose dependent vitamin C synthesis” (Vlaams Interuniversitair Instituut Voor Biotechnologie VZW, priority 2003, published 2006).
Where two headings read alike, the source gives them in different places.

Experiments:
[1] = molecular target: T1, GDP-Man 3″,5″-epimerase of A. thaliana (Arabidopsis thaliana, UniProt Q93VR3); assay: GDP-Man 3″,5″-epimerase assay (HPLC); type: biochemical; conditions: for epimerase activity: purified epimerase, exogenously added dinucleotide; for inhibition at 1000 µM: read-out: inhibition of the epimerase activity
T1 construct: The hydroxylapatite fraction of native epimerase (11) was used; endogenous in cells; host or cells: Arabidopsis thaliana ecotype Columbia cell suspensions; enzyme purified, hydroxylapatite fraction
T1 sequence (Q93VR3 1-377): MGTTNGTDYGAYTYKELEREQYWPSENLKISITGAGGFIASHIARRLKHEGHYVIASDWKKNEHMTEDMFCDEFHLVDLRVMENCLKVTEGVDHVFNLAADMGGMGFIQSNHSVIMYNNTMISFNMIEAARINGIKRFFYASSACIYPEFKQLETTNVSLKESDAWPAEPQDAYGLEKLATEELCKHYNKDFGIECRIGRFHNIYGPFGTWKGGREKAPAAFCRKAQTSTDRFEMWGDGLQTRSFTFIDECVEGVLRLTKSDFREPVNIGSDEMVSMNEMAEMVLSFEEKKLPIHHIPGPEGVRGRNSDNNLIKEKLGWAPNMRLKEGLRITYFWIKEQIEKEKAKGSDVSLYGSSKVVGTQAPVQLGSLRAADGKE
Description: Characterization of GDP-Man 3″,5″-epimerase of A. thaliana. (A) Steady-state parameters of the native (purified from A. thaliana cell suspensions) and recombinant enzyme. The hydroxylapatite fraction of native epimerase (11) was used. The affinity-purified recombinant enzymes were used. […] Double reciprocal plots are shown and each line represents a fixed GDP concentration: 0 μM, circles; 2 μM, triangles; and 4 μM, squares. V0 is pmol of GDP-L-Gal/L-Gul produced per minute. GDP-Man concentrations were from 1.1 to 5.5 μM. Inset: Secondary plot of slopes versus GDP concentration was used to determine the Ki value for GDP. […] Incubations contained GDP-[^14C]Man (3.4 μM), increasing amounts of GDP-L-Fuc, and an aliquot of the hydroxylapatite fraction of epimerase. Kinetic measurements were performed in duplicates; standard deviation was equal or less than 5%.

[2] = test system: A. thaliana cell suspensions; assay: In vivo labeling of A. thaliana cell suspensions with D-[U-14C]Man and L-AA determination; type: cell-based, Arabidopsis thaliana; conditions: pre-incubated 20 hours with 2.5 mM compound; for [^14C]-labeled L-AA / [^14C]-labeled L-AA (% of control): labeled two hours with D-[U-14C]Man; for Cold L-AA: acid extracts, HPLC
Description: GDP-Man 3″,5″-epimerase assay and L-AA determination. The GDP-Man 3″,5″-epimerase activity and L-AA were measured by the HPLC method as described (13), with the exception that the concentration of methanol in solvent A was 0.5% and the flow rate was 0.8 ml/min.
In vivo labeling of A. thaliana cell suspensions with D-[U-14C]Man. In vivo labeling of A. thaliana cells was performed as described (13). Cell suspensions were pre-adapted to labeling conditions for 20 hours in the presence or absence of exogenous L-AA or its precursors (2.5 mM), followed by two hours labeling with 1 μCi of D-[U-14C]Man. L-AA was extracted with 5% metaphosphoric acid containing 2 mM DTT and 1 mM EDTA.

Chlorella epimerase = conditions: read-out: Km for the GDP-Man substrate; cited from earlier work

NC(=O)C1=CN([C@@H]2O[C@H](COP(=O)(O)OP(=O)(O)OC[C@H]3O[C@@H](n4cnc5c(N)ncnc54)[C@H](OP(=O)(O)O)[C@@H]3O)[C@@H](O)[C@H]2O)C=CC1 [NADPH]
epimerase activity [1]: 88 % of control

O=C1O[C@H]([C@@H](O)CO)C(O)=C1O [L-AA, L-ascorbic acid]
Cold L-AA (% of control) [2]: 832 % of control
[^14C]-labeled L-AA [2]: 448 10^−3 × cpm/mg fw
[^14C]-labeled L-AA (% of control) [2]: 33 % of control
Cold L-AA [2]: 1764 nmol/g fw
inhibition at 1000 µM ([1]; 1 mM): 15%

C[C@@H]1O[C@H](OP(=O)(O)OP(=O)(O)OC[C@H]2O[C@@H](n3cnc4c(=O)[nH]c(N)nc43)[C@H](O)[C@@H]2O)[C@@H](O)[C@H](O)[C@@H]1O [GDP-L-Fuc, Guanosine diphospho-L-fucose]
IC50 [1]: 70 µM
type of inhibition of the epimerase ([1]; even at 1 mM concentration): partial inhibition

Nc1nc2c(ncn2[C@@H]2O[C@H](COP(=O)(O)OP(=O)(O)O)[C@@H](O)[C@H]2O)c(=O)[nH]1 [GDP]
Ki [1]: 0.7 µM

adenosine diphospho-D-glucose [ADP-D-Glc]
effect on the enzyme activity ([1]; adenosine derivative): no effect

NC(=O)c1ccc[n+]([C@@H]2O[C@H](COP(=O)([O-])OP(=O)(O)OC[C@H]3O[C@@H](n4cnc5c(N)ncnc54)[C@H](O)[C@@H]3O)[C@@H](O)[C@H]2O)c1 [NAD+]
epimerase activity [1]: 145 % of control

O=C[C@@H](O)[C@@H](O)[C@H](O)[C@@H](O)CO [L-Gulose, L-gulose]
Cold L-AA (% of control) [2]: 190 % of control
[^14C]-labeled L-AA [2]: 872 10^−3 × cpm/mg fw
[^14C]-labeled L-AA (% of control) [2]: 65 % of control
Cold L-AA [2]: 403 nmol/g fw

Nc1nc2c(ncn2[C@@H]2O[C@H](COP(=O)(O)OP(=O)(O)O[C@H]3O[C@H](CO)[C@@H](O)[C@H](O)[C@@H]3O)[C@@H](O)[C@H]2O)c(=O)[nH]1 [GDP-Man, GDP-D-mannose]
Km ([1]; native epimerase, FIG. 1A, read-out: Km for the GDP-Man substrate): 4.4 µM
Km (Chlorella epimerase): 96 µM

NC(=O)C1=CN([C@@H]2O[C@H](COP(=O)(O)OP(=O)(O)OC[C@H]3O[C@@H](n4cnc5c(N)ncnc54)[C@H](O)[C@@H]3O)[C@@H](O)[C@H]2O)C=CC1 [NADH]
epimerase activity [1]: 78 % of control

Nc1nc2c(ncn2[C@@H]2O[C@H](COP(=O)(O)OP(=O)(O)O[C@H]3O[C@H](CO)[C@@H](O)[C@H](O)[C@H]3O)[C@@H](O)[C@H]2O)c(=O)[nH]1 [GDP-Glc, guanosine diphospho-D-glucose]
Ki [1]: 5 µM

O=C1O[C@H]([C@@H](O)CO)[C@@H](O)[C@@H]1O [L-galactono-1,4-lactone]
Cold L-AA (% of control) [2]: 170 % of control
[^14C]-labeled L-AA [2]: 790 10^−3 × cpm/mg fw
[^14C]-labeled L-AA (% of control) [2]: 59 % of control
Cold L-AA [2]: 360 nmol/g fw
inhibition at 1000 µM [1]: 14%

O=C1O[C@H]([C@@H](O)CO)[C@H](O)[C@@H]1O [L-Gulono-1,4-lactone, L-gulono-1,4-lactone]
Cold L-AA (% of control) [2]: 165 % of control
[^14C]-labeled L-AA [2]: 722 10^−3 × cpm/mg fw
[^14C]-labeled L-AA (% of control) [2]: 54 % of control
Cold L-AA [2]: 345 nmol/g fw

O=C[C@@H](O)[C@H](O)[C@H](O)[C@@H](O)CO [L-galactose]
Cold L-AA (% of control) [2]: 315 % of control
[^14C]-labeled L-AA [2]: 423 10^−3 × cpm/mg fw
[^14C]-labeled L-AA (% of control) [2]: 32 % of control
Cold L-AA [2]: 668 nmol/g fw
inhibition of the epimerase activity ([1]; 1 mM): no effect

O=C1O[C@H]([C@H](O)CO)C(O)=C1O [D-isoascorbic acid]
inhibition of the epimerase activity ([1]; 1 mM): no effect

NC(=O)c1ccc[n+]([C@@H]2O[C@H](COP(=O)([O-])OP(=O)(O)OC[C@H]3O[C@@H](n4cnc5c(N)ncnc54)[C@H](OP(=O)(O)O)[C@@H]3O)[C@@H](O)[C@H]2O)c1 [NADP+]
epimerase activity [1]: 110 % of control
